Earlier results, collected in the CATMoS acute toxicity set (Mansouri et al. 2021).
Values joined by “and” are separate entries in the source; they are usually repeats but may differ in a detail not shown here. Equal entries are not always repeated.

Experiment: rat acute oral toxicity
Conditions: in vivo
In the case of `C#CCC1=C(C)C(OC(=O)C2C(C=C(C)C)C2(C)C)CC1=O` (configuration not stated), the LD50 is given as 460 mg/kg.
In the case of `O=[N+]([O-])c1ccc(O)c2ncccc12`, the LD50 is listed as 510 mg/kg.
In the case of `CC(C(=O)O)c1ccc2c(c1)OCc1ccccc1C2=O` (configuration not stated), the LD50 is listed as 34 mg/kg.
In the case of `O=C(O)c1c(Cl)ccc(Cl)c1Cl`, the LD50 is given as 1640 mg/kg.
In the case of `CC(C)COCCO`, the LD50 is given as 400 mg/kg.
In the case of `CCCOC/C(=N\c1ccc(Cl)cc1C(F)(F)F)n1ccnc1`, the LD50 is listed as 715 mg/kg.
In the case of `CC(=O)C1OC1(C)C` (configuration not stated), the LD50 is given as 1610 mg/kg.
In the case of `Cc1nc2n(c(=O)c1CCN1CCC(c3noc4cc(F)ccc34)CC1)CCC[C@H]2O`, the LD50 is given as 65 mg/kg.
In the case of `CCCCCCCCCc1ccc(OCCOS(=O)(=O)O)cc1`, the LD50 is given as 10000 mg/kg.
In the case of `O=C(c1ccccc1)N1CCN=C1Nc1c(Cl)cccc1Cl`, the LD50 is listed as 68.1 mg/kg.
In the case of `O=c1[nH]c2c(Cl)c(Cl)cc(Cl)c2o1`, the LD50 is listed as 500 mg/kg.
For `COc1ccc(C=C2C(=O)N=C3c4ccccc4N=CN23)cc1`, the LD50 is listed as 258 mg/kg.
For `CC(C)=CC1C(C(=O)OCc2cccc(Oc3ccccc3)c2)C1(C)C` (configuration not stated), the LD50 is given as 500 mg/kg.
In the case of `O=C(Nc1nc(-c2ccccc2)cs1)OCC(Cl)(Cl)Cl`, the LD50 is listed as 550 mg/kg.
For `CCCCC(CC)C(O)C(=O)O` (configuration not stated), the LD50 is given as 3400 mg/kg.
In the case of `CC(C)=CC1C(C(=O)OCc2ccc(C)cc2C)C1(C)C` (configuration not stated), the LD50 is given as 40000 mg/kg.
In the case of `O=C(C=Cc1ccccn1)OCCN1CCN(c2ccc(Cl)cc2)CC1`, the LD50 is listed as 478 mg/kg.
In the case of `CN1CCOC(c2ccccc2)c2ccccc2C1` (configuration not stated), the LD50 is given as 80 mg/kg.
For `CCCn1c(=O)[nH]c(=O)c2[nH]cnc21`, the LD50 is listed as 481 mg/kg.
For `CCCOC(=O)COc1cccc(C(C)(C)C)c1`, the LD50 is given as 1800 mg/kg.
In the case of `C1C2OC2C2C1C1CC2C2OC12` (configuration not stated), the LD50 is listed as 210 mg/kg.
In the case of `CCn1cc(C(=O)O)c(=O)c2cc3c(cc21)OCO3`, the LD50 is given as 525 mg/kg.
In the case of `CC(=O)c1ccc(C(O)C(CO)NC(=O)C(Cl)Cl)cc1` (configuration not stated), the LD50 is given as 1100 mg/kg.
For `CCCCCCCCCCCCN`, the LD50 is listed as 1020 mg/kg.
In the case of `COP(=O)(OC)SC(P(=O)(OC)OC)=P(OC)(OC)OC`, the LD50 is given as 38 mg/kg.
In the case of `COc1ccccc1N1CCN(CC=Cc2ccc3c(c2)CCC(=O)N3)CC1`, the LD50 is listed as 500 mg/kg.
In the case of `O=c1ncc2[nH]c(=O)[nH]c2[nH]1`, the LD50 is given as 1820 mg/kg.
In the case of `CCN(CCO)c1ccccc1`, the LD50 is given as 1640 mg/kg.
In the case of `O=C(O)C1C2CCC(O2)C1C(=O)O` (configuration not stated), the LD50 is listed as 51 mg/kg.
In the case of `COc1ccc(SC#N)c([N+](=O)[O-])c1`, the LD50 is listed as 3540 mg/kg.
In the case of `CCCCCC(=O)NP(=O)(OC)SC` (configuration not stated), the LD50 is given as 25 mg/kg.
For `COP(=S)(OC)SCN1C(=O)CCC1=O`, the LD50 is given as 7 mg/kg.
In the case of `CC(c1ccccc1)C(C)(C)N` (configuration not stated), the LD50 is given as 180 mg/kg.
For `CCOc1ccccc1N1CCN(C(=O)CCC2CCCCC2)CC1`, the LD50 is given as 2420 mg/kg.
For `c1ccc(-c2ccc(CCOc3ncnc4ccccc34)cc2)cc1`, the LD50 is listed as 1150 mg/kg.
For `N#Cc1cccnc1`, the LD50 is listed as 1180 mg/kg.
In the case of `CN1CCCC(n2nc(Cc3ccc(Cl)cc3)c3ccccc3c2=O)CC1` (configuration not stated), the LD50 is listed as 310 mg/kg and 580 mg/kg.
For `COC(C)N(C)N=O` (configuration not stated), the LD50 is given as 240 mg/kg.
In the case of `CCNC(=O)C(SP(=S)(OC)OC)C(=O)NCC`, the LD50 is listed as 1000 mg/kg.
In the case of `CCOC(=S)SSSSC(=S)OCC`, the LD50 is given as 275 mg/kg.
In the case of `C1=CCC(C2OCC3(CC=CCC3)CO2)CC1` (configuration not stated), the LD50 is listed as 5190 mg/kg.
In the case of `Cc1cccc(C)c1N(CCCC(=O)O)C(=O)c1ccc(Cl)cc1`, the LD50 is listed as 1900 mg/kg.
For `O=CC1CCC=CO1` (configuration not stated), the LD50 is listed as 4920 mg/kg.
For `O=S(=O)(Cl)CCCl`, the LD50 is listed as 240 mg/kg.
For `Cc1ccccc1N=NN(C)C`, the LD50 is given as 350 mg/kg.
For `O=C(O)c1cc(O)c(O)c(OC(=O)c2cc(O)c(O)c(O)c2)c1`, the LD50 is given as 2260 mg/kg.
In the case of `CC(C)(C)c1ccc2cc(C(C)(C)C)c(S(=O)(=O)O)cc2c1`, the LD50 is given as 4240 mg/kg.
For `C(=NC1CCCCC1)=NC1CCCCC1`, the LD50 is listed as 400 mg/kg.
In the case of `CCOC(C1=NCC(C)(C)N1)c1ccc(Cl)c(Cl)c1` (configuration not stated), the LD50 is given as 110 mg/kg.
For `CN1CCC2(C)c3cc(OC(=O)NCCCCCCCCCCN4CCOCC4)ccc3N(C)C12` (configuration not stated), the LD50 is given as 40 mg/kg.
For `C=C(OP(=O)(OCC)OCC)P(=O)(OC)OC`, the LD50 is given as 173 mg/kg.
In the case of `CC(=O)C=CC1=C(C)CCCC1(C)C`, the LD50 is given as 4590 mg/kg.
For `CCC(C(O)c1ccc2[nH]c(=O)ccc2c1)N1CCN(c2cccc(Cl)c2)CC1` (configuration not stated), the LD50 is given as 500 mg/kg.
In the case of `Cc1ccccc1N1C(=O)C=CC1=O`, the LD50 is listed as 250 mg/kg.
In the case of `CC(C)C(CCN(C)C)(C(N)=O)c1cccc2ccccc12` (configuration not stated), the LD50 is given as 1030 mg/kg.
For `CCCCc1c(OC(=O)c2ccc3c(c2)OCO3)n(-c2ccccc2)n(-c2ccccc2)c1=O`, the LD50 is listed as 1370 mg/kg.
For `OC1(c2ccc(Cl)cc2)c2ccccc2C2=NCCN21` (configuration not stated), the LD50 is given as 36.3 mg/kg.
For `CC(=O)OCC(=O)NCCCOc1cccc(CN2CCCCC2)c1`, the LD50 is listed as 755 mg/kg.
In the case of `Cn1c(=O)c2c(ncn2CCNCc2cccnc2)n(C)c1=O`, the LD50 is given as 3700 mg/kg.
In the case of `[N-]=[N+]=NC1CCCCC1=NO` (configuration not stated), the LD50 is listed as 1120 mg/kg.
In the case of `COC(=O)C(C(=O)Cc1c(C)n(C(=O)c2ccc(Cl)cc2)c2ccc(OC)cc12)C(=O)OC`, the LD50 is given as 208 mg/kg.
For `CCCCCCCCCCCCCC[N+](C)(C)C`, the LD50 is given as 3900 mg/kg.
For `CCOP(=S)(OCC)SC(CBr)N1C(=O)c2ccccc2C1=O` (configuration not stated), the LD50 is listed as 18 mg/kg.
In the case of `CC(C)(CO)S(C)(=O)=O`, the LD50 is listed as 11300 mg/kg.
For `O=c1[nH]c2ccccc2n1C1CCN(CCCC(c2ccc(F)cc2)c2ccc(F)cc2)CC1`, the LD50 is given as 1100 mg/kg.
For `C=CC(=O)OCCOCC`, the LD50 is given as 1070 mg/kg.
For `N#CCN(CC#N)N=O`, the LD50 is listed as 163 mg/kg.
For `CN=C(O)O/N=C1/SCOC1C` (configuration not stated), the LD50 is given as 12 mg/kg.
In the case of `CCN(CCCCOC(=O)c1ccc(OC)c(OC)c1)C1CCc2cc(OC)c(OC)cc2C1` (configuration not stated), the LD50 is given as 1540 mg/kg.
For `C#CCc1ccc(COC(=O)C2C(C=C(C)C)C2(C)C)o1` (configuration not stated), the LD50 is given as 10000 mg/kg.
In the case of `CC[C@@H](COC(=O)c1cc(OC)c(OC)c(OC)c1)N(C)CCN(C)[C@@H](CC)COC(=O)c1cc(OC)c(OC)c(OC)c1`, the LD50 is given as 1500 mg/kg.
In the case of `CC1=CCC2CC(CC3(CCC(C)C(C(C)C)O3)O2)OC(=O)C2C=C(C)C(O)C3OCC(=CC=CC(C)C1)C23O` (configuration not stated), the LD50 is listed as 2470 mg/kg.
